Tests used:
[1] = Pilot human study of saliva flow rate (Parafilm chewed for 2 minutes, saliva weighed); assay type: in vivo; conditions: 0.1 mg Uritos; single subject
Experimental: In this study, the effect of imidafenacin (Uritos®), pilocarpine, the combination of the two, and placebo was measured in separate, yet identical, studies in a single individual.
The following protocol was for a pilot human study to evaluate the extent of saliva flow rate following the administration of 0.1 mg Uritos® tablet and 5 or 10 mg pilocarpine HCl tablet after about 0.5 or 3 hrs from imidafenacin administration. The subject was a healthy, person. The subject performed the following: • 1. Fast the night before. • 2. No coffee or soda 8 hrs prior to taking the first dose. • 3. Record time voiding and measure urine if possible. • 4. Record extent of dryness of the mouth (Very dry, dry, and not dry). • 5. Record any adverse event. • 6. Chew a 1″×1″ piece of Parafilm (American National Can (Neenah, Wis. 54956) Bar code No. 7-466676999) over 2 minutes. • 7. Collect wetted Parafilm and saliva into a tared container (pre-weighed container). • 8. Measure the amount of saliva collected. • 9. Plot Saliva collected per 2 min time intervals against time.
The subject fasted overnight, but had 240 mL of water 1 hr prior to dose. The water continued ad lib until 1 hr pre and 1 hr post dose, other than 120 mL with Uritos® and 120 mL with 5 mg Salagen tablet. For lunch, the subject consumed a light sandwich. No coffee, soda, or caffeinated or alcoholic beverages was consumed. […]

[2] = 5 mg of pilocarpine; cited from earlier work

Row | SMILES | Time of maximum dry mouth / maximum saliva depression point after administration [1] | Time of maximum saliva output after administration [2]
1 | Cc1nccn1CCC(C(N)=O)(c1ccccc1)c1ccccc1 [imidafenacin, 4-(2-methyl-1H-imidazol-1-yl)-2,2-diphenylbutanamide] | about 5 hours | –
2 | CC[C@@H]1C(=O)OC[C@@H]1Cc1cncn1C [pilocarpine] | – | about 30 minutes
